The values that follow come from article PMC6618241 (Angewandte Chemie (International Ed. in English), 2019).

The experiment has as its system MRSA USA300 LAC. The experiment in a line: Antimicrobial activity assay. The experiment is classed as cell-based, Staphylococcus aureus.

“(CPraWLVWV) (head to tail) [compound 24, 2‐Pra‐6‐Trp‐lug]”: the “antimicrobial activity against USA300 (in words)” value (MIC ≥100 μg mL^−1 regarded as inactive) is listed as “active”. Moreover, the “change of antimicrobial activity relative to 1” value (from MIC values, compared with 1) is recorded as “equal activity”.
